Source: patent US20080319001A1, “Cancer Treatment Using Specific 3,6,9-Substituted Acridines” (priority 2005, published 2008)
Where two headings read alike, the source gives them in different places.

Key:
[1] = Log P (summary of biological and physicochemical properties, Table 4)
[2] = Thermodynamic solubility; type: physicochemical; conditions: for solubility at 24 h: thermodynamic from solid, read-out: Solubility Free Base equivalent
Procedure: Thermodynamic solubility values were determined in each of 0.1M HCl, Deionised water, pH6.8 phosphate buffer, 0.9% saline and 5% dextrose.
1.25-1.5 mg of sample was weighed out into a 1 ml HPLC tube to which 0.25 ml of the dissolution media was added to allow for determination of solubility up to 5 mg/ml. This suspension was then shaken for 24 hours before measurement of the pH, filtration (through a 96 well plate with a glass fibre filter membrane), dilution and analysis of the neat and diluted solutions at different injection volumes on a generic 5 minute HPLC method.
A reference solution was prepared in DMSO for comparison and calculation of the test solubilities. XRPD patterns were measured of remaining solids from experiments where complete dissolution was not achieved.
It is believed the large additional peak noted in the HPLC chromatograms is due to a rotamer of the parent compound. This should therefore be included in the overall peak area assessment. Therefore, the largest and second largest peaks noted in the reference solution were added together as were the same peaks (i.e. the same retention times) in the test sample injections.

[3] = Cytotoxicity / growth inhibition, MCF7; type: cell-based; conditions: human, MCF7 cells; read-out: Cytotoxic IC50 vs. MCF7
[4] = pKa measurement (Sirius GlpKa, potentiometric and UV titration); type: physicochemical
Procedure: Pka determination was performed on a Sirius GlpKa instrument equipped with a D-PAS (Dip-Probe Absorption Spectroscopy) attachment. Measurements were made by potentiometric and UV titration in MeOH:H2O mixtures at 25° C. The titration media was ionic strength adjusted with 0.15 M KCl. The values found in the MeOH:H2O mixtures were extrapolated to 0% co-solvent via a Yasuda-Shedlovsky extrapolation. Prediction of pKa values was made using ACD v8.07 software.
BSG01-4.14 from aqueous UV measurement (Potentiometry gave 4.15 although incomplete curves were collected). Other values from potentiometric in Aqueous/MeOH mixtures followed by Yasuda-Shedlovsky extrapolation to 0% MeOH. All pKas basic from slope of extrapolation. P BSG17—Values from potentiometric titrations in Aqueous/MeOH mixtures followed by Yasuda-Shedlovsky extrapolation to 0% MeOH. All pKas basic from slop of extrapolation. PKas 2 and 3 for titration in 30% MeOH removed from YS extrapolation due to precipitation.

[5] = system: G-quadruplex DNA (F21T oligonucleotide); assay: FRET DNA melting assay; type: binding; conditions: [conc]ΔTm=20 value
Procedure: The ability of the compounds to stabilise G-quadruplex DNA was investigated using a fluorescence resonance energy transfer (FRET) assay modified to be used as a high-throughput screen in a 96-well format. The labelled oligonucleotide F21T (5′-FAM-dGGG(TTAGGG)-3-TAMRA-3′) used as the FRET probe was diluted from stock to the correct concentration (400 nM) in a 50 mM potassium cacodylate buffer (pH 7.4) and then annealed by heating to 85° C. for 10 min., followed by cooling to room temperature in the heating block.
Compounds were stored as 10 mM stock solutions in DMSO; final solutions (at 2× concentration) were prepared using water or 1M HCl in the initial 1:10 dilution, after which 50 mM potassium cacodylate buffer (pH 7.4) was used in all subsequent steps. 96-well plates (MJ Research, Waltham, Mass.) were prepared by aliquoting 50 μl of the annealed DNA to each well, followed by […] of the compound solutions. Measurements were made on a DNA Engine Opticon (MJ Research) with excitation at 450-495 nm and detection at 515-545 nm. Fluorescence readings were taken at intervals of 0.5° C. over the range 30-100° C., with a constant temperature being maintained for 30 seconds prior to each reading to ensure a stable value. Final analysis of the data was carried out using a script written in the program Origin 7.0 (OriginLab Corp., Northampton, Mass.). […]

[6] = Cytotoxicity / growth inhibition, DU145; type: cell-based; conditions: human, DU145 cells; read-out: Cytotoxic IC50 vs. DU145
[7] = Metabolic stability, HLM; type: in vitro ADME, human
[8] = system: human telomerase; conditions: Read et al. 2001; Harrison et al. 2003; Schultes et al. 2004; cited from earlier work
[9] = 0.9% saline, saline or isotonic, 0.9% NaCl, 24 hours
[10] = aqueous buffer, pH 6.8 phosphate buffer, 24 hours
[11] = deionised water, Water, 24 hours
[12] = saline or isotonic, 5% Dextrose, 24 hours
[13] = simulated gastric fluid, 0.1M HCl, 24 hours
[14] = UV + Pot, 25° C., 0.15 M KCl, read-out: Measured pKa, pKa1
[15] = potentiometric in aqueous/MeOH, Yasuda-Shedlovsky extrapolation to 0% MeOH, read-out: Measured pKa, pKa2
[16] = potentiometric in aqueous/MeOH, Yasuda-Shedlovsky extrapolation to 0% MeOH, read-out: Measured pKa, pKa3

Structure (SMILES) | logP [1] | PH of unfiltered Saturated solution ([2]; 0.1M HCl) | PH of unfiltered Saturated solution ([2]; 0.9% NaCl) | solubility at 24 h [2, 9] [µg/mL] | PH of unfiltered Saturated solution ([2]; 5% Dextrose) | PH of unfiltered Saturated solution ([2]; Water) | solubility at 24 h [2, 10] [µg/mL] | solubility at 24 h [2, 11] [µg/mL] | PH of unfiltered Saturated solution ([2]; pH 6.8 phosphate buffer) | solubility at 24 h [2, 12] [µg/mL] | solubility at 24 h [2, 13] [µg/mL] | IC50 at 96 h [3] [nM] | pKa [4, 14] | pKa [4, 15] | pKa [4, 16] | FRET [5] [µM] | IC50 at 96 h [6] [µM] | HLM (t = 45) [7] | HLM (t = 90) [7] | further results
O=C(CCN1CCCC1)Nc1ccc2c(NCc3ccc(F)c(F)c3)c3ccc(NC(=O)CCN4CCCC4)cc3nc2c1 [BSG17, N-(9-(3,4-Difluoro-benzylamino)-6-(3-pyrolidin-1-yl-propionamide)-acridin-3-yl)-3-pyrrolidin-1-yl-propionamide] | 1.59 | 1.12 | 8.81 | < 1 | 7.96 | 8.34 | 1950 | 20 | 7.49 | 300 | > 5000 | 2260 | 8.17 | 9.09 | 9.61 | 0.46 | 9.75 | 3.1 | 12.4 | –
CN(C)c1ccc(Nc2c3ccc(NC(=O)CCN4CCCC4)cc3nc3cc(NC(=O)CCN4CCCC4)ccc23)cc1 [BSG01] | 1.4 | 1.25 | 9.80 | < 1 | 8.26 | 8.66 | 2630 | < 1 | 7.45 | 220 | > 5000 | 2530 | 4.15 | 8.14 | 9.08 | 0.72 | 2.3 | 6.1 | 11.2 | Solubility Free Base equivalent ([2]; Water, 24 hours): <1 µg/mL; pKa ([4]; aqueous UV, read-out: pKa from aqueous UV measurement): 4.14; pKa ([4]; potentiometric in aqueous/MeOH, Yasuda-Shedlovsky extrapolation to 0% MeOH, read-out: Measured pKa, pKa4): 9.31; pKa ([4]; titration medium, ionic strength adjusted with 0.15 M KCl, potentiometry, incomplete curves, read-out: pKa from potentiometry): 4.15; in vitro inhibitory activity against human telomerase [8]: potent in vitro inhibitory activity
